Experimental data reported in patent publication US7851487B2, “Use of tetrahydropyridines in the treatment of central nervous system disorders” (The Research Foundation of State University of New York, priority 2006, dated 2010).
Structures can show the parent of a compound that is named as a salt.

What was measured:
[1] = target: T1, norepinephrine transporter (Rattus norvegicus, UniProt Q9WTR4); test: [3H]nisoxetine displacement at norepinephrine transport sites, rat forebrain membranes; type: binding; conditions: NE (Ki, nM), displacement of 0.7 nM [3H]nisoxetine
T1 construct: tissue Pel-Freez, Rogers, AR; host or cells: rat forebrain membranes
T1 sequence (Q9WTR4 1-597): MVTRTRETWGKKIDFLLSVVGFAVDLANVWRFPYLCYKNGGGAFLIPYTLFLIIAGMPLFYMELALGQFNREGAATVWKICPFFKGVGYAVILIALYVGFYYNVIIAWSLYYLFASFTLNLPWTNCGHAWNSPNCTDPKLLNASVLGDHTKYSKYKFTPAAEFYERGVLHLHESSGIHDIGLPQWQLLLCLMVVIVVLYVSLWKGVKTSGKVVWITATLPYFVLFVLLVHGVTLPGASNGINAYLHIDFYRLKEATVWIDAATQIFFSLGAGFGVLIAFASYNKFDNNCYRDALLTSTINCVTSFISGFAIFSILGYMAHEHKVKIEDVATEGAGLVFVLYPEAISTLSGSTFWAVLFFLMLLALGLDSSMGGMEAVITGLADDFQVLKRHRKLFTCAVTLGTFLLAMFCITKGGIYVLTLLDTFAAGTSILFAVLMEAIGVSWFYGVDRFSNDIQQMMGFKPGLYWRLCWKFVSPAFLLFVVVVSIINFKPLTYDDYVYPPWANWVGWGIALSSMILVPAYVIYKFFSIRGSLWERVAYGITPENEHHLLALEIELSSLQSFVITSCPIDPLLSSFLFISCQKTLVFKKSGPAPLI
Procedure: (§1) For this Example, binding of at biogenic amine transporters was determined using striatum and frontal cortex dissected from frozen Sprague-Dawley rat brains (Pel-Freez, Rogers, AR). Affinities of analogs at dopamine transport sites were determined by displacement of [^125I]RTI-55 binding in membranes from rat striatum, using 0.5 mg (original wet weight) of membranes and 10 pM [^125]RTI-55. Non-specific binding was determined in the presence of 1 μM WF-23 (analog 3a). Affinities of analogs at 5-HT transport sites were determined by displacement of [^3H] paroxetine binding in membranes from rat frontal cortex, using 50 mg (original wet weight) of membranes and 0.4 nM [^3H]paroxetine. Non-specific binding was determined in the presence of 10 μM fluoxetine. Binding of analogs at norepinephrine transport sites was determined by displacement of [^3H]nisoxetine binding in membranes from rat forebrain, using 0.7 nM [^3H]nisoxetine. Non-specific binding was determined in the presence of 1 μM desipramine.
(§2) Potencies were calculated from displacement curves using 7-10 concentrations of unlabeled analogs, as analyzed by non-linear curve fitting. Because binding of tropanes at dopamine transporters is generally regarded as multiphasic,^3 potencies in inhibiting [^125I]RTI-55 binding are reported as IC50 values. For [^3H]paroxetine and [^3H]nisoxetine binding assays, Ki values were calculated using the Cheng-Prusoff equation. All data are mean values±S.E.M. of at least three separate experiments, each of which was conducted in triplicate.
(§3) The binding affinities to dopamine (DA), serotonin (5-HT), and norepinephrine (NE) transporters for the series of compounds (4) are presented in Table 1.

dopamine transporter = target: T2, dopamine transporter (Rattus norvegicus, UniProt P23977); test: [125I]RTI-55 displacement at dopamine transport sites, rat striatum membranes; type: binding; conditions: DA (IC50, nM), displacement of 10 pM [125I]RTI-55, rat striatum
T2 construct: tissue Pel-Freez, Rogers, AR; host or cells: rat striatum membranes
T2 sequence (P23977 whole entry): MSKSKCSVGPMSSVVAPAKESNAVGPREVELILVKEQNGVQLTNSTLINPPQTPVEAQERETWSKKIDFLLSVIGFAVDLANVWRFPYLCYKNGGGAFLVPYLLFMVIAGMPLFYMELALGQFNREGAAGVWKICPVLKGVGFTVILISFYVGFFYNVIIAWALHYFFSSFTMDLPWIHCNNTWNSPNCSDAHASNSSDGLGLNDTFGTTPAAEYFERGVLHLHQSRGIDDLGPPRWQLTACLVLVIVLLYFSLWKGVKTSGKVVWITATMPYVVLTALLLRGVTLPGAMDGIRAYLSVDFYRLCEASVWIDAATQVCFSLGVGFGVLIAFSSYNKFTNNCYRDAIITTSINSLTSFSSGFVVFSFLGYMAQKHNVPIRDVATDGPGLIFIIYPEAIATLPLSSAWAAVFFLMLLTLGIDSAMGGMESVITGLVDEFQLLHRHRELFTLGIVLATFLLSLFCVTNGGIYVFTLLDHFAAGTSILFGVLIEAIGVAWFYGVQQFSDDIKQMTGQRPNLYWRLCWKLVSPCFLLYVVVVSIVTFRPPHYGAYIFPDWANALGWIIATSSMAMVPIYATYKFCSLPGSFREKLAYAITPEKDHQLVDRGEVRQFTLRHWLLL
Procedure: as §1, §2, §3

5-HT transporter = target: T3, 5-HT transporter (Rattus norvegicus, UniProt P31652); test: [3H]paroxetine displacement at 5-HT transport sites, rat frontal cortex membranes; type: binding
T3 construct: tissue Pel-Freez, Rogers, AR; host or cells: rat frontal cortex membranes
T3 sequence (P31652 whole entry): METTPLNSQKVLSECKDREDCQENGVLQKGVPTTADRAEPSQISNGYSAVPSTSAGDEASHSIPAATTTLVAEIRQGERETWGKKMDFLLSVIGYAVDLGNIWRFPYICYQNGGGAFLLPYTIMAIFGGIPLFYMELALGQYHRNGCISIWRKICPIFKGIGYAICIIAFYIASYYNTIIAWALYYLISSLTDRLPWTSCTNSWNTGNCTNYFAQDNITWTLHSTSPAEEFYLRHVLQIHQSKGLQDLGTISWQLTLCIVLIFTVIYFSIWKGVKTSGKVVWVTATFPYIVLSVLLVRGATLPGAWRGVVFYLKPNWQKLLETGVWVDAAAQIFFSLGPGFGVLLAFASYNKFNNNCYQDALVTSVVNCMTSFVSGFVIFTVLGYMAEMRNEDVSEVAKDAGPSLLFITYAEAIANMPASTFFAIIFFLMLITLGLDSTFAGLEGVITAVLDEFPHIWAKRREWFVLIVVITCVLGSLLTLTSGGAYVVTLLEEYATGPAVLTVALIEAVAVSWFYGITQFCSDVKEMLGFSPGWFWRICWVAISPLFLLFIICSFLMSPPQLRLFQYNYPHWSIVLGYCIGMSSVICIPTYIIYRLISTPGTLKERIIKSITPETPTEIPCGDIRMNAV
Procedure: as §1, §2, §3

ckr mouse = test: Hyperactivity and circling in ckr mice (model validation); type: in vivo; conditions: rate of hyperactivity and circling after administration, concentrations relevant to human clinical use
Procedure: The mouse also presents lateral ventricular enlargement, which may mirror neuropathological observations in shizophrenia. […] We have further validated this model by testing risperidone, clozapine, haloperidol and pimozide in the ckr mouse. The behavioral output was assayed by measuring the rate of hyperactivity and circling after administration.

Row | SMILES | Ki [1] [nM] | IC50 (dopamine transporter) [nM] | Ki (5-HT transporter) [nM] | hyperactivity in ckr mice (ckr mouse)
1 | COC(=O)C(c1ccc(Cl)c(Cl)c1)C1C=CCCN1 [(2R,2′S)-4d] | 109 | 216 | – | –
2 | COC(=O)[C@H](c1ccc(Cl)cc1)[C@@H]1C=CCCN1 [(2R,2′S)-4c] | 3310 | 5030 | > 10000 | –
3 | COC(=O)[C@H](c1ccc(Br)cc1)[C@@H]1C=CCCN1 [(2R,2′S)-4b] | – | 5590 | – | –
4 | COC(=O)[C@@H](c1ccc(Cl)cc1)[C@H]1C=CCCN1 [(2S,2′R)-4c] | 391 | 5370 | > 10000 | –
5 | COC(=O)[C@H](c1ccc2ccccc2c1)[C@@H]1C=CCCN1 [(2R,2′S)-4f] | 323 | 547 | 608 | –
6 | COC(=O)C(c1ccc(Cl)cc1)C1C=CCCN1 (racemic) [(±)-4c] | 1910 | 6380 | > 10000 | –
7 | COC(=O)[C@@H](c1ccc2ccccc2c1)[C@H]1C=CCCN1 [(2S,2′R)-4f] | 800 | 864 | 1960 | –
8 | Cc1nc2n(c(=O)c1CCN1CCC(c3noc4cc(F)ccc34)CC1)CCCC2 [risperidone] | – | – | – | dose-dependent attenuation of hyperactivity
9 | COC(=O)C(c1ccc2ccccc2c1)C1C=CCCN1 (racemic) [(±)-4f] | 1190 | 496 | 1200 | –
10 | O=C(CCCN1CCC(O)(c2ccc(Cl)cc2)CC1)c1ccc(F)cc1 [haloperidol] | – | – | – | dose-dependent attenuation of hyperactivity
11 | COC(=O)C(c1ccc(Cl)c(Cl)c1)C1C=CCCN1 [(2S,2′R)-4d] | 193 | 329 | > 10000 | –
12 | COC(=O)[C@@H](c1ccc(Br)cc1)[C@H]1C=CCCN1 [(2S,2′R)-4b, (S)-Methyl 2-(4-bromophenyl)-2-((R)-1,2,5,6-tetrahydropyridin-2-yl)acetate hydrochloride] | – | 5340 | – | –
13 | COC(=O)C(c1ccc(Br)cc1)C1C=CCCN1 (racemic) [(±)-4b] | – | 6020 | – | –
